Counter-ions that a name gives are not always drawn.
System: platelet aggregation
Assay: In-Vitro Platelet Aggregation in PRP (ADP-induced)
Assay type: cell-based
Settings: dog platelet-rich plasma, ADP 50 μm final; for IC50: 1 min preincubation at 37° C.; for % Inhibition: Test Concentration 1 × 10^-5
Protocol: Compounds of the invention were evaluated by an in vivo assay to determine compound activity as an inhibitors of platelet aggregation.
Healthy male or female dogs were fasted for 8 hours prior to drawing blood; then 30 mL whole blood was collected using a butterfly needle and 30 cc plastic syringe with 3 ml of 0.129M buffered sodium citrate (3.8%). The syringe was rotated carefully as blood was drawn to mix the citrate. Platelet-rich plasma (PRP) was prepared by centrifugation at 975×g for 3.17 minutes at room temperature, allowing the centrifuge to coast to a stop without braking. The PRP was removed from the blood with a plastic pipette and placed in a plastic capped, 50 ml Corning conical sterile centrifuge tube which was held at room temperature. Platelet poor plasma (PPP) was prepared by centrifuging the remaining blood at 2000×g for 15 minutes at room temperature allowing the centrifuge to coast to a stop without braking. The PRP was adjusted with PPP to a count of 2-3×10^8 platelets per ml. 400 μL of the PRP preparation and 50 μL of the compound to be tested or saline were preincubated for 1 minute at 37° C. in a BioData aggregometer (BioData, Horsham, Pa.). 50 μL of adenosine 5'diphosphate (ADP) (50 μm final concentration) was added to the cuvettes and the aggregation was monitored for 1 minute. All compounds are tested in duplicate. Results are calculated as follows:
Percent of control=[(maximal OD minus initial OD of compound) divided by (maximal OD minus initial OD of control saline)]×100. The % inhibition=100 - (percent of control).

[1] = Canis lupus familiaris, Platelet

Compound	IC50	% Inhibition	IC50 [1]
N=C(N)c1ccc(CCCCC(=O)N[C@H]2CC(=O)OC2c2ccccc2)cc1 (single isomer, unassigned; diastereoisomer b) [Example 5, 4-(aminoiminomethyl)-N-(tetrahydro-5-oxo-2-phenyl-3S-furanyl)benzenepentanamide, trifluoroacetate (diastereoisomer B)]	5100 nM	–	–
N=C(N)c1ccc(CCCCC(=O)N[C@H]2CC(=O)OC2c2nccs2)cc1 (single isomer, unassigned; diastereoisomer a) [Example 7, 4-(aminoiminomethyl)-N-[tetrahydro-5-oxo-2-(2-thiazolyl)-3S-furanyl]benzene pentanamide, bis(trifluoroacetate) (diastereoisomer A)]	> 10000 nM	–	–
N=C(N)c1ccc(CCCCC(=O)N[C@H]2CC(=O)OC2c2ccccc2)cc1 (single isomer, unassigned; diastereomer a) [Example 4]	680 nM	100%	–
COc1ccc2c(c1)OC(=O)CC2NC(=O)CCCCc1ccc(C(=N)N)cc1 (racemic) [Example 3, (±)-4-(Aminoiminomethyl)-N-(3,4-dihydro-7-methoxy-2-oxo-2H-1-benzopyran-4-yl)benzenepentanamide]	–	96%	1100 nM
N=C(N)c1ccc(CCCCC(=O)NC2CC(=O)Oc3ccccc32)cc1 (racemic) [Example 2, (±)-4-(Aminoiminomethyl)-N-(3,4-dihydro-2-oxo-2H-1-benzopyran-4-yl) benzenepentanamide]	–	–	2000 nM
N=C(N)c1ccc(CCCCC(=O)N[C@@H]2COC(=O)C2)cc1 [Example 1, 4-(Aminoiminomethyl)-N-(5-oxo-3S-furanyl)benzenepentanamide]	–	44%	–
N=C(N)c1ccc(CCCCC(=O)NC2CC(=O)OC2c2nccs2)cc1 (single isomer, unassigned; diastereoisomer b) [Example 8, 4-(aminoiminomethyl)-N-[tetrahydro-5-oxo-2-(2-thiazolyl)-3S-furanyl]benzene pentanamide, trifluoroacetate. (diastereoisomer B)]	> 10000 nM	–	–

— patent publication US5441974A, “Phenyl amidines lactones useful as platelet aggregation inhibitors” (G. D. Searle & Co., priority 1994, dated 1995)
